Test [1] relates to IGF-I receptors in membranes of non-SCLC H157 tumours. The test can be described thus: IGF-I receptor binding on H157 tumour membranes after in vivo treatment. Set-up: species or system human. An excerpt:
(§1) Br. J. Cancer (1994). 70, 886 892 ? Macmillan Press Ltd.. […] Bombesin GRP antagonists. […] Lung carcinoma is the leading cause of cancer-related deaths in the western world. It is estimated that in 1992 there were approximately 168,000 new cases of lung cancer in the US and that about 146,000 deaths occurred from this disease (Boring et al., 1992). […] The growth factors such as bombesin/gastrin-releasing pep- tide (GRP), epidermal growth factor, (EGF), transforming growth factor a (TGF-x) and insulin-like growth factor I(IGF-I) appear to play a role in the proliferation and pro- gression of lung cancer (Cuttitta et al., 1985; Veale et al., 1987; Minuto et al., 1988; Siegfried & Owens, 1988; Macaulay et al., 1990; Tateishi et al., 1991; Damstrup et al., 1992; Sethi & Rozengurt, 1992; Rabiasz et al., 1992; Moody & Cuttitta, 1993). […] Tpi is 2,3,4,9-tetrahydro- Correspondence: A.V. Schally (151). VA Medical Center, 1601 Per- dido Street. New Orleans, LA 70146. USA. Received 1 March 1994; and in revised form 5 July 1994. Br. J. Cancer (1994), 70, 886-892 C Macmillan Press Ltd., 1994 PEPTIDE ANALOGUES IN LUNG CANCER 8U7 lH-pyrido [3,4bjindol-3-carboxylic acid, a conformationally constrained secondary amine derivate of tryptophan and Tac is thiazolidine-4-carboxylic acid. […] Animals Male athymic NCr nulmu nude mice, approximately 6 weeks old on arrival, were obtained from the NCI (Bethesda, MD, USA) and maintained under pathogen-limited conditions. Cell lines The human SCLC cell line NCI-H69, was obtained from the American Type Cell Culture (ATCC), Rockville, MD, USA and the non-SCLC cell line NCI-H157, from Dr H. Oie, NCI-Navy Medical Oncology Branch, Bethesda, MD, USA. These cell lines were cultured in RPMI-1640 medium supple- mented with 4 mM L-glutamine, 50 units ml-I penicilln G sodium, SOigml-' streptomycin sulphate, 0.125pgml-' amphotericin B and 10% fetal bovine serum at 3TC in a humidified 95% air/5% carbon dioxide atmosphere. CeLs were passaged weekly and routinely monitored for myco- plasma contamination using a detection kit (Boehringer- Mannheim, Mannheim, Germany). All culture media com- ponents were purchased from Gibco (Grand Island, NY, USA). […] The number of mitotic and apoptotic cells per 1,000 cells was determined, and the percentage area of necrosis in tumour sections was examined using the point-counting method (Szepeshazi et al., 1991, 1992), in which the crossing points of an ocular net that coincide with necrosis in various sections are counted. Radiommunoassays Serum levels of growth hormone were determined by double- antibody radioimmunoassay (RIA) using materials supplied by the National Hormone and Pituitary Program of the National Institute of Diabetes and Digestive and Kidney Diseases (NIDDK).

The test system of test [2] is Bombesin/GRP receptors in membranes of SCLC H69 tumours. The test can be described thus: Bombesin/GRP receptor binding on H69 tumour membranes after in vivo treatment. The following applies: Table IV, Experiment I (SCLC-H69); tumour membranes after in vivo treatment; control 420; done once. On the set-up: species or system human.
Description: as §1, with “USA). Receptor assays Preparation of membranes for receptor studies was described previously (Halmos et al., 1993). Iodinated EGF and IGF-I were purchased from Amersham (Arlington Heights, IL, USA). Radioiodination of other peptides and receptor bind- ing of EGF, IGF-I, somatostatin and bombesin/GRP were performed as previously described (Srkalovic et al., 1989; Szepeshazi et al., 1992). Complete displacement assays on tumour membranes were done only once because of the shortage of tumour material. The LIGAND PC computerised curve-fitting programme of Munson and Rodbard (1980) was used to determine the types of receptor binding, dissociation constant (Kd) values, and the maximal binding capacity (BDj) of receptors.” for “USA).”

Test [3] can be described thus: Serum growth hormone (GH) radioimmunoassay in nude mice. It counts as in vivo. An excerpt:
Br. J. Cancer (1994). 70, 886 892 ? Macmillan Press Ltd.. […] Bombesin GRP antagonists. […] Lung carcinoma is the leading cause of cancer-related deaths in the western world. It is estimated that in 1992 there were approximately 168,000 new cases of lung cancer in the US and that about 146,000 deaths occurred from this disease (Boring et al., 1992). […] CeLs were passaged weekly and routinely monitored for myco- plasma contamination using a detection kit (Boehringer- Mannheim, Mannheim, Germany). […] The number of mitotic and apoptotic cells per 1,000 cells was determined, and the percentage area of necrosis in tumour sections was examined using the point-counting method (Szepeshazi et al., 1991, 1992), in which the crossing points of an ocular net that coincide with necrosis in various sections are counted. Radiommunoassays Serum levels of growth hormone were determined by double- antibody radioimmunoassay (RIA) using materials supplied by the National Hormone and Pituitary Program of the National Institute of Diabetes and Digestive and Kidney Diseases (NIDDK).

Test [4] in a line: Serum gastrin radioimmunoassay in nude mice. It counts as in vivo. The following applies: both experiments, after chronic treatment, vs controls.
Test [5] deals with IGF-I receptors in membranes of SCLC H69 tumours. The test can be described thus: IGF-I receptor binding on H69 tumour membranes after in vivo treatment. On the set-up: species or system human. The settings on record: Table IV, Experiment I (SCLC-H69), control 294, done once.
Description: as §1

The subject of test [6] is EGF receptors in membranes of non-SCLC H157 tumours. The test can be described thus: EGF receptor binding on H157 tumour membranes after in vivo treatment. Set-up: species or system human.
Description: as §1

For a further test, the system named is SCLC H69 tumours. The test can be described thus: Histology (mitosis, apoptosis, necrosis) of SCLC H69 tumours. The settings on record: Table II, Experiment I (SCLC H69); control 0.96 ? 0.1; means ? s.e.; *P < 0.05 vs control. Format: in vivo, human (xenograft in nude mice). From the text: (§2) Br. J. Cancer (1994). 70, 886 892 ? Macmillan Press Ltd.. […] Bombesin GRP antagonists. […] Lung carcinoma is the leading cause of cancer-related deaths in the western world. It is estimated that in 1992 there were approximately 168,000 new cases of lung cancer in the US and that about 146,000 deaths occurred from this disease (Boring et al., 1992). […] The growth factors such as bombesin/gastrin-releasing pep- tide (GRP), epidermal growth factor, (EGF), transforming growth factor a (TGF-x) and insulin-like growth factor I(IGF-I) appear to play a role in the proliferation and pro- gression of lung cancer (Cuttitta et al., 1985; Veale et al., 1987; Minuto et al., 1988; Siegfried & Owens, 1988; Macaulay et al., 1990; Tateishi et al., 1991; Damstrup et al., 1992; Sethi & Rozengurt, 1992; Rabiasz et al., 1992; Moody & Cuttitta, 1993). […] Tpi is 2,3,4,9-tetrahydro- Correspondence: A.V. Schally (151). VA Medical Center, 1601 Per- dido Street. New Orleans, LA 70146. USA. Received 1 March 1994; and in revised form 5 July 1994. Br. J. Cancer (1994), 70, 886-892 C Macmillan Press Ltd., 1994 PEPTIDE ANALOGUES IN LUNG CANCER 8U7 lH-pyrido [3,4bjindol-3-carboxylic acid, a conformationally constrained secondary amine derivate of tryptophan and Tac is thiazolidine-4-carboxylic acid. […] Animals Male athymic NCr nulmu nude mice, approximately 6 weeks old on arrival, were obtained from the NCI (Bethesda, MD, USA) and maintained under pathogen-limited conditions. Cell lines The human SCLC cell line NCI-H69, was obtained from the American Type Cell Culture (ATCC), Rockville, MD, USA and the non-SCLC cell line NCI-H157, from Dr H. Oie, NCI-Navy Medical Oncology Branch, Bethesda, MD, USA. These cell lines were cultured in RPMI-1640 medium supple- mented with 4 mM L-glutamine, 50 units ml-I penicilln G sodium, SOigml-' streptomycin sulphate, 0.125pgml-' amphotericin B and 10% fetal bovine serum at 3TC in a humidified 95% air/5% carbon dioxide atmosphere. CeLs were passaged weekly and routinely monitored for myco- plasma contamination using a detection kit (Boehringer- Mannheim, Mannheim, Germany). All culture media com- ponents were purchased from Gibco (Grand Island, NY, USA). Receptor assays Preparation of membranes for receptor studies was described previously (Halmos et al., 1993). Iodinated EGF and IGF-I were purchased from Amersham (Arlington Heights, IL, USA). Radioiodination of other peptides and receptor bind- ing of EGF, IGF-I, somatostatin and bombesin/GRP were performed as previously described (Srkalovic et al., 1989; Szepeshazi et al., 1992). Complete displacement assays on tumour membranes were done only once because of the shortage of tumour material. The LIGAND PC computerised curve-fitting programme of Munson and Rodbard (1980) was used to determine the types of receptor binding, dissociation constant (Kd) values, and the maximal binding capacity (BDj) of receptors. In order to determine the specificity of the binding sites for radiolabelled EGF, IGF-I, somatostatin and bombesin to lung cancer membranes, various structuraly related and unrelated peptides were tested for their ability to inhibit the binding of the tracers. Histological procedure The histological procedures were the same as described previously (Szepeshazi et al., 1991, 1992). The number of mitotic and apoptotic cells per 1,000 cells was determined, and the percentage area of necrosis in tumour sections was examined using the point-counting method (Szepeshazi et al., 1991, 1992), in which the crossing points of an ocular net that coincide with necrosis in various sections are counted. Radiommunoassays Serum levels of growth hormone were determined by double- antibody radioimmunoassay (RIA) using materials supplied by the National Hormone and Pituitary Program of the National Institute of Diabetes and Digestive and Kidney Diseases (NIDDK).
On the technique in general: Xenograft models place foreign cells or tissue in a host animal.

Test [7] concerns non-SCLC cell line NCI-H157. The test can be described thus: Growth of H157 non-SCLC xenografts in nude mice. The following applies: RC-160 100 µg/day, RC-3095 20 µg/day. Format: in vivo, human (xenograft in male athymic nude mice).
Description: as §2

Test [8] deals with MIA PaCa-2 human pancreatic cancer cell line. The settings on record: ref Liebow et al., 1989; cited from earlier work. From the text: (§3) Br. J. Cancer (1994). 70, 886 892 ? Macmillan Press Ltd..
Test [9] relates to LNCaP prostatic cancer cells. The settings on record: LNCaP cells in culture; ref Gattani et al., 1990; cited from earlier work.
Description: as §3

Test [10] concerns human SCLC cell line NCI-H69. In words: Growth of H69 SCLC xenografts in nude mice. It counts as in vivo, human (xenograft in male athymic nude mice).
Description: as §2

Where [11] appears, read: H69 SCLC xenografts, as compared with control group, RC-160 100 µg, RC-3950-II 20 µg per animal per day s.c. peritumorally, 5 weeks.

Where no end group is shown, it is not given here. [ ]: non-standard residue; d: D form.

In the case of “[dF]CY[dW]KVCW-NH2 (cysteine pairing not given here) [RC-160, Somatostatin analogue RC-160]”, the “IGF-I maximal binding capacity (Bmax)” value in test [1] (Table IV, Experiment II (non-SCLC H157), tumour membranes after in vivo treatment, control 257, done once) worked out at 129 fmol mg' protein; in [5], 176 fmol mg' protein. Also, the “IGF-I binding sites on H157 tumours (in words)” value in [1] (after in vivo treatment) is on record as “decreased”. Moreover, the “Bombesin/GRP maximal binding capacity (Bmax)” value in [2] was 435 fmol mg-'protein. The “Serum GH levels (in words)” value in [3] (both experiments, after chronic treatment, vs controls) was “significantly decreased serum growth hormone and gastrin levels”. Further, the “Decrease in serum GH levels” value in test [3] (mice treated with RC-160 as compared with control mice) is recorded as “about 48%”. The “Serum gastrin levels (in words)” value in [4] was “significantly decreased serum growth hormone and gastrin levels”. For the same substance, the “EGF maximal binding capacity (Bmax)” value in [6] (Table IV, Experiment II (non-SCLC H157), tumour membranes after in vivo treatment, control 249, done once) came out at 100 fmol mg' protein. For the same substance, the “EGF binding capacity on H157 tumours (in words)” value in test [6] (after in vivo treatment) is “decreased”. Also, in the test on SCLC H69 tumours, the “Ratio of apoptotic to mitotic indices” value is listed as 2.27 ± 0.5*. The “Growth of H157 non-SCLC tumours (in words)” value in test [7] (4 weeks s.c., SB-75 100 µg/day per animal, vs control) is given as “significantly reduced”. In addition, the “Tumour volume, final” value in test [7] (Table I, Experiment II (non-SCLC H157), 4 weeks s.c. peritumoral, SB-75 100 µg/day per animal, control 1580.3 ? 455.7, means ? s.d., ten animals per group, *P<0.05 vs control) is 291.0 207.8* (mm)r; in [10] (Table I, Experiment I (SCLC-H69), 5 weeks s.c. peritumoral, RC-160 100 µg/day, RC-3440, RC-3095, RC-3950-II 20 µg/day per animal, control 249.7 ? 182.3, means ? s.d., ten animals per group, *P<0.05 vs control) it was 66.0 26.5* (mm)r. For the same substance, the Tumour weight is listed as 0.64 0.3* g in test [7] (Table I, Experiment II (non-SCLC H157), 4 weeks s.c., SB-75 100 µg/day, control 1.9 ? 0.3, means ? s.d., *P<0.05 vs control) and 0.058 0.04* g in test [10] (Table I, Experiment I (SCLC-H69), 5 weeks s.c. peritumoral, RC-160 100 µg/day, antagonists 20 µg/day per animal, control 0.27 ? 0.19, means ? s.d., *P<0.05 vs control). Moreover, the Tumour doubling time in test [7] (Table I, Experiment II (non-SCLC H157), 4 weeks s.c., SB-75 100 µg/day, control 3.88) worked out at 6.06 days; in test [10] (Table I, Experiment I (SCLC-H69), 5 weeks, RC-160 100 µg/day, antagonists 20 µg/day per animal s.c., control 7.5), 12.7 days. Further, in [8], the “Effect on EGF-stimulated cell growth (in words)” value is on record as “reversed the stimulatory effect of EGF”. The “Effect on EGF-stimulated phosphorylation of the tyrosine kinase domain of the EGF receptors (in words)” value in [8] is “reversed the stimulatory effect of EGF”. Further, in [9], the “Effect on [3H]thymidine incorporation (in words)” value is listed as “inhibitory effect”. For the same substance, in test [10] (setting [11]), the “Reduction in tumour volumes” value is listed as “more than 70%”. The “Reduction in tumour weights” value in test [10] (setting [11]) is recorded as “more than 70%”. In test [10] (SCLC H69 tumours, P<0.01, from start of the experiment), the “Time from which tumour growth was significantly inhibited” value came out at 14 days. For the same substance, the “Growth of H69 SCLC tumours (in words)” value in test [10] (s.c. peritumorally, RC-160 100 µg, bombesin/GRP antagonists 20 µg per animal per day, 5 weeks) was “inhibited the growth of H69 SCLC xenografts”.
